Several values for one entry are separate records, joined by “and”; a condition that tells them apart may be missing. Equal entries are not always repeated. Entries after “also recorded” stand apart in the source; their conditions may differ. Where two headings read alike, the source gives them in different places.
Legend:
Aedes albopictus [1] = experiment: Effective dose / protection efficacy, human-bait technique; type: in vivo; conditions: for pest or weed control at 0.081 µg/cm2, 0.081 µg/cm2 / pest or weed control at 0.17 µg/cm2, 0.17 µg/cm2 / pest or weed control at 0.33 µg/cm2, 0.33 µg/cm2 / pest or weed control at 0.5 µg/cm2, 0.5 µg/cm2 / pest or weed control at 0.83 µg/cm2, 0.83 µg/cm2 / pest or weed control at 1.7 µg/cm2, 1.7 µg/cm2 / pest or weed control at 8.3 µg/cm2, 8.3 µg/cm2 / pest or weed control at 16.7 µg/cm2, 16.7 µg/cm2 / pest or weed control at 83.3 µg/cm2, 83.3 µg/cm2: Aedes albopictus, topical, read-out: Protection efficacy PE%; for Protection efficacy (dose to obtain complete protection (100%) from bite attempts): applied on skin of volunteers, 3 min exposure
Method: The repellence of DEET, Icaridin (both supplied by Istituto Biochimico VEBI s.r.l.), acetals, and the synthesized hydroxyacetals was evaluated againstAedes albopictususing the human-bait technique (to simulate the condition of human skin on which repellents will be applied).[22]A. albopictuswas reared and tested at 26 ± 2 °C, ≥60 ± 10% relative humidity (RH), and at 14:10 h light/dark photoperiod, within Plexiglas cylindrical laboratory cages (35 cm diameter, 60 cm length) with one end closed by a net. During the tests, cages contained ≈150 nulliparous, 4–7 day-old, nonblood-fed females. For each compound to be tested, up to six volunteers participated in the trial.
The study was approved by the Regional Ethics Committee for Clinical Trials of Tuscany Region with the registered number 20383. Volunteers agreed to take part in the experiments following informed consent; only volunteers non-allergic to mosquito bites participated in the trials. On the day of the bioassay, they had no contact with lotions, perfumes, oils, or perfumed soaps. They wore latex surgical gloves, in which a dorsal square area of 30 cm^2 was cut open. Mosquito-exposed skin was treated with 50 μL of ethanol, as the negative hand control. The other hand was treated with 50 μL of the tested compounds in ethanol solution (dosages corresponding to 0.081, 0.17, 0.33, 0.5, 0.83, 1.7, 8.3, 16.7, and 83.3 μg/cm^2). Both hands were presented in the same test cage. The number of probing mosquitoes in a 3 min exposure period was recorded. During each test, the control and the treated hand were presented interchanged to verify the mosquitoes’ readiness to bite. Trials were considered valid only if at least 30 mosquitoes performed probing behavior on the control hand before each repellent dosage was tested. The protection efficacy (PE %) obtained from all replicates was calculated, according to the WHO guidelines[31] using this formula [drawing 1]
To evaluate the protection efficacy, volunteers applied increasing doses of the compounds to the skin on the back of their hands (30 cm^2, while the rest was covered with a rubber glove) and counted the number of mosquitoes attempting to bite; the solvent only was used on the control hand. The protection (percentage of repelled mosquitoes) was calculated as reported in the Material and Methods section.

Aedes albopictus [2] = experiment: Protection time at 0.17 mg/cm2, human-bait technique; type: in vivo; conditions: for pest or weed control at 0.17 mg/cm2, 0.17 mg/cm2: Aedes albopictus, topical, read-out: Protection time PE%; for Average PT >95% (% coefficient of variation) / Estimated 100% PT (complete protection time, mean±SE): at the dose of 0.17mg/cm2; for Estimated 100% PT (complete protection time, mean±SE): Kaplan–Meier estimate; for Protection time (95% protection): dose of 0.17 mg/cm^2, tests ended after 8 h
Method: To evaluate the protection time of derivatives, the PE % was measured with 100 μL of a 5% ethanol solution, corresponding to 0.17 mg/cm^2 of exposed skin, under the same laboratory conditions. Mosquito-exposed skin was treated with 100 μL of ethanol, as the negative hand control. For each volunteer (up to 8), the test was performed every hour, up to 8 h from the application. The protection time of DEET and Icaridin was measured under the same conditions. Since these trials were run in parallel with those aimed to profile the cytotoxicity of the compounds (paragraph 2.6), we interrupted the experiments for those compounds showing to have higher cytotoxicity than Icaridin and DEET as soon as the results were available. For this reason, the number of volunteers differs among the compounds.
The average time until protection which was higher than 95% protection time was considered for each compound. Moreover, for the compounds tested on at least three volunteers, the complete (100%) protection time was also estimated (SPSS 28.01.0) using the Kaplan–Meier survivor function procedure.[22]

HaCaT cells = experiment: Cytotoxicity on human keratinocytes (MTS); type: cell-based; conditions: 82 μg/mL, 24 h
Method: HaCaT cells were cultured in 5% CO2 at 37 °C in Dulbecco’s modified Eagle’s medium (DMEM), supplemented with 10% fetal bovine serum (FBS), 1% L-glutamine ([…]), and 1% penicillin–streptomycin (Thermo Fisher Scientific, Rodano, Milan, Italy). […] Experiments were performed in triplicate.

Caco-2 monolayer = experiment: Transwell permeation test; type: in vitro ADME; conditions: 82 μg/mL apical, 3 h
Method: To evaluate the possibility of absorption after topical application, we tested the permeation through a Caco-2 monolayer for those compounds best performing in terms of protection time and cytotoxicity. The colorectal adenocarcinoma cell line Caco-2 was purchased from ATCC and cultured in DMEM with 20% FBS, L-glutamine (2 mM), and 1% penicillin–streptomycin 100 U/mL (Thermo Fisher Scientific, Rodano, Milan, Italy) in 5% CO2 at 37 °C.
For the permeation studies, Caco-2 cells, a model of epithelial cells, were seeded into 12-well PET Transwell plates (1.13 cm^2 growth surface area and pore size 0.4 μm, Greiner Bio-One, Milan, Italy) at a density of 2 × 10^5 cells/cm^2 and grown for 21 days to form a confluent monolayer. The integrity of the cellular barrier was then assessed using Lucifer Yellow (LY) permeability test, before the experiments.[33]
After washing, the monolayers were preincubated for 20 min at 37 °C with 0.5 and 1.5 mL of the incubation medium, HBSS/HEPES 25 mM in the apical and basolateral sides, respectively. […] At the end of the experiment, the layer integrity was re-evaluated. […]
One hundred microliters of the collected media was extracted in 100 μL of heptane by vortexing the vial for 2 min; 70 μL of this solution was recovered; and 1 μL was injected in a 7820 GC system-5977B MSD system and analyzed under the same conditions reported in paragraph 2.2. […]

RAW 264.7 = experiment: Immunogenicity on murine macrophages (nitric oxide release); type: cell-based; conditions: RAW264.7, 82 μg/mL, 6 h
Method: Cells were cultured in DMEM, with 10% FBS, 1% L-glutamine (2 mM), and 1% penicillin–streptomycin 100 U/mL at 37 °C in an atmosphere containing 5% CO2. RAW264.7 were seeded (1 × 10^5 cells/well) and exposed to five derivatives or Icaridin, at 82 μg/mL or to LPS (1 μg/mL) as a positive control, for 3 and 6 h. After that, nitric oxide release was determined in the culture media as previously described.[32] Experiments were performed in triplicate.

Row | Compound | pest or weed control at 0.081 µg/cm2, 0.081 µg/cm2 (Aedes albopictus [1]) | pest or weed control at 0.17 µg/cm2, 0.17 µg/cm2 (Aedes albopictus [1]) | pest or weed control at 0.33 µg/cm2, 0.33 µg/cm2 (Aedes albopictus [1]) | pest or weed control at 0.5 µg/cm2, 0.5 µg/cm2 (Aedes albopictus [1]) | pest or weed control at 0.83 µg/cm2, 0.83 µg/cm2 (Aedes albopictus [1]) | pest or weed control at 1.7 µg/cm2, 1.7 µg/cm2 (Aedes albopictus [1]) | pest or weed control at 8.3 µg/cm2, 8.3 µg/cm2 (Aedes albopictus [1]) | pest or weed control at 16.7 µg/cm2, 16.7 µg/cm2 (Aedes albopictus [1]) | pest or weed control at 83.3 µg/cm2, 83.3 µg/cm2 (Aedes albopictus [1]) | Protection efficacy (dose to obtain complete protection (100%) from bite attempts) (Aedes albopictus [1]) | pest or weed control at 0.17 mg/cm2, 0.17 mg/cm2 (Aedes albopictus [2]; 0.17mg/cm2, 1 h) | pest or weed control at 0.17 mg/cm2, 0.17 mg/cm2 (Aedes albopictus [2]; 0.17mg/cm2, 2 h) | pest or weed control at 0.17 mg/cm2, 0.17 mg/cm2 (Aedes albopictus [2]; 0.17mg/cm2, 3 h) | pest or weed control at 0.17 mg/cm2, 0.17 mg/cm2 (Aedes albopictus [2]; 0.17mg/cm2, 4 h) | pest or weed control at 0.17 mg/cm2, 0.17 mg/cm2 (Aedes albopictus [2]; 0.17mg/cm2, 5 h) | pest or weed control at 0.17 mg/cm2, 0.17 mg/cm2 (Aedes albopictus [2]; 0.17mg/cm2, 6 h) | pest or weed control at 0.17 mg/cm2, 0.17 mg/cm2 (Aedes albopictus [2]; 0.17mg/cm2, 7 h) | pest or weed control at 0.17 mg/cm2, 0.17 mg/cm2 (Aedes albopictus [2]; 0.17mg/cm2, 8 h) | Average PT >95% (% coefficient of variation) (Aedes albopictus [2]) | Estimated 100% PT (complete protection time, mean±SE) (Aedes albopictus [2]) | further results
1 | CC1(CO)COC2(CCCCC2)OC1 [6b] | 48.4% | 62.7% | 77% | 64.9% | 100% | 100% | 100% | 100% | 100% | 0.83 μg/cm^2 | 100% | 99.1% | 100% | 100% | 99.4% | 90.8% | 97.3% | 95.1% | 480 (3.3) min | 375 ± 89 min | 100% PE (Aedes albopictus [1]; Table S1): 0.83 µg/cm2; Protection time (95% protection) (Aedes albopictus [2]): 8 h; survival of keratocytes (HaCaT cells): > 88%
2 | CC(C)CC1(CC(C)C)OCC(C)(CO)CO1 [17b] | 8.33% | 27.8% | 50.8% | 44.4% | 58.1% | 94.8% | 100% | 100% | 100% | 8.3 μg/cm^2 | 100% | 98.7% | 99.1% | 100% | 96.8% | 93.6% | 95.6% | 96.5% | 480 (5.0) min | 300 ± 94 min | Protection time (95% protection) (Aedes albopictus [2]): 8 h; survival of keratocytes (HaCaT cells): > 88% and 92%; permeability value lower compared to Icaridin (Caco-2 monolayer): 17%; immunogenicity (nitric oxide release / nitrite production), in words (RAW 264.7): did not exhibit immunogenicity; also recorded: indistinguishable from the negative control
